Laboratory results: patent US20080188554A1, “METHODS OF TREATING AVIAN HYPERTENSION” (Regents of the University of California Office of …, priority 2006, published 2008)
Marks after values point to notes of the source that are not given here.

Tests used:
sEH = molecular target: T1, sEH (Homo sapiens, UniProt P34913); assay: sEH inhibition, general statements on earlier tests; type: biochemical; details: statement in words, no method given
T1 sequence (P34913 1-555): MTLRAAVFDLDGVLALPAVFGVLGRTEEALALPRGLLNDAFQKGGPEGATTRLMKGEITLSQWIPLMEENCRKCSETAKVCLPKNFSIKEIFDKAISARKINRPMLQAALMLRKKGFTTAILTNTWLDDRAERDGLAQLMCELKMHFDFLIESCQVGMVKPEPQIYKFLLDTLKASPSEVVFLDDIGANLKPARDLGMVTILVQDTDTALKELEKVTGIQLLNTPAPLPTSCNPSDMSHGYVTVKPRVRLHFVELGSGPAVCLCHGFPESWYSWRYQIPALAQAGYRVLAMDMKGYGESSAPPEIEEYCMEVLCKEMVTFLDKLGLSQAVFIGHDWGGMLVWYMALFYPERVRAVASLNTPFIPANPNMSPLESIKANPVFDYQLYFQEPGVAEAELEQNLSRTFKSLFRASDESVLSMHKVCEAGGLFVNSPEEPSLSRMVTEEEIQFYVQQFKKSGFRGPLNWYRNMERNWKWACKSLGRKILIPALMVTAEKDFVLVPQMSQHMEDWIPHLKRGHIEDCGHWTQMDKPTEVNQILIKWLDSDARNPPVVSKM

Recombinant chicken sEH = Recombinant chicken sEH (Gallus gallus, UniProt Q45QT1); assay: Non-radioactive epoxide hydrolase assay (HPLC-MS/MS), specific activity of substrates; type: biochemical; details: compound as substrate, 50 μM, 30° C., 10 min
Recombinant chicken sEH, sequence (Q45QT1 entry or part of it): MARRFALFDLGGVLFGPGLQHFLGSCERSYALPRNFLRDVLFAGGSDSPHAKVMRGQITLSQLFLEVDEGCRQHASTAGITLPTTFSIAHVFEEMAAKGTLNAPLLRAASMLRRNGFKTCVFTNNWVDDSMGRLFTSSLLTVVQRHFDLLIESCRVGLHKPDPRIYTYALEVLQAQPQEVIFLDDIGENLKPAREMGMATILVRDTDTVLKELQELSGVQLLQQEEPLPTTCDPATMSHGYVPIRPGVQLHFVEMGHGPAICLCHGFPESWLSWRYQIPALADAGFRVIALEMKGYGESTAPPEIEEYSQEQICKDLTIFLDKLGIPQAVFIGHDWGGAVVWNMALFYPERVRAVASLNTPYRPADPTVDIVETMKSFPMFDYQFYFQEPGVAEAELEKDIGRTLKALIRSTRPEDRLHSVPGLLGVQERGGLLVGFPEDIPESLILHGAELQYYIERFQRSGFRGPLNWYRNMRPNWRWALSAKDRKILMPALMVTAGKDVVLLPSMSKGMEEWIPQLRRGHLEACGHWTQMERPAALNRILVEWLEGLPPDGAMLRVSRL
Protocol: The trans-9,10-epoxystearate was purchased (Sigma-Aldrich). A 5 mM solution of each substrate was made in ethanol for the EETs and methanol for the epoxystearate. The substrate solution (1 μL) was added to 100 μL of enzyme preparation in sodium phosphate buffer (0.1 M, pH 7.4) containing 0.1 mg/mL of BSA ([S]final=50 μM). The enzyme was incubated with the substrate at 30° C. for 10 min, and the reaction quenched by addition of 400 μL of methanol. The products were analyzed by HPLC-MS/MS as previously described (Newman, J. W. et al., J. Lipid Res. 43:1563-1578 (2002)) with the following exceptions. A 2.0×20 mm, 3-μm Luna C18 Mercury MS column (Phenomenex, Torrance, Calif.) was used with a 350 μL/min isocratic flow of […] (vol/vol/vol) acetonitrile/water/methanol with 0.1% glacial acetic acid for 2.5 min. Assays were performed in triplicate.

mouse sEH = molecular target: T2, mouse sEH (Mus musculus, UniProt P34914); details: compound as substrate, from Morisseau 2000; cited from earlier work
T2 sequence (P34914 1-554): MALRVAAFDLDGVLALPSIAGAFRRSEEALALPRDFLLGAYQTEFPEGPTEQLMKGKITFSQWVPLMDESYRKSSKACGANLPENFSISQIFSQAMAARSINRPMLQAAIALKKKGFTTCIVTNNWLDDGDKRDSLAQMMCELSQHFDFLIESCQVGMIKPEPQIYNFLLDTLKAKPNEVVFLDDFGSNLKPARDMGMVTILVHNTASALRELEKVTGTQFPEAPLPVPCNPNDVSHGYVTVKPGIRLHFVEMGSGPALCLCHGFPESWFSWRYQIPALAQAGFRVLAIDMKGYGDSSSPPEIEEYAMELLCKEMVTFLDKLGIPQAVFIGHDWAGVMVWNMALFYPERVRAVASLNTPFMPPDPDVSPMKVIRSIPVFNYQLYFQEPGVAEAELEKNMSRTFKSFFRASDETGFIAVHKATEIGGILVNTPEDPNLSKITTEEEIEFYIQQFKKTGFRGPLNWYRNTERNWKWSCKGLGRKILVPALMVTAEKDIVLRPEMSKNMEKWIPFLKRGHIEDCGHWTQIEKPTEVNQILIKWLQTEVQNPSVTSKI

Activity as inhibitor of sEH (sEH)	Specific activity (Recombinant chicken sEH) [nmol/min/mg]	Structure (SMILES)	Specific activity (mouse sEH)
particularly high activity		CCCCCCCCCCCCNC(=O)NC12CC3CC(CC(C3)C1)C2 [ADU, N-Adamantyl-N′-dodecyl urea]	
	3.1 ± 0.2	CCCCCCCCC1OC1CCCCCCCC(=O)O (stereo not drawn) [cis-9,10-epoxystearic acid]	1139 ± 34* nmol · min^−1 · mg^−1
